The conditions of data set [1]: cited from earlier work.
Data set [2] can be described thus: Dissolution of tacrolimus compositions in 0.005% HPC, pH 4.5, USP <711> apparatus I, baskets at 100 rpm. Format: physicochemical. The protocol:
Compositions A, B, and C were placed in 0.005% HPC, pH 4.5 according to USP <711>, apparatus I (2009), Baskets at 100 rpm (the dissolution vehicle). As an example of the different release profiles for the three compositions, the amount of medicament released from composition A was 92.07% at 120 min. The amount of medicament released from composition B was less than 10% at 360 min (excluded from graph due to scale). The amount of medicament released from Composition C was 43.55% at 120 min.

Like-named read-outs stand apart in the source and are kept apart here.

On to `CN1CCN(C2=Nc3cc(Cl)ccc3Nc3ccccc32)CC1` [clozapine], for which the pka value in data set [1] (first of two printed pka values) is given as 3.98; in data set [1] (second of two printed pka values) it was 7.62.

On to `C=CC[C@@H]1/C=C(\C)C[C@H](C)C[C@H](OC)[C@H]2O[C@@](O)(C(=O)C(=O)N3CCCC[C@H]3C(=O)O[C@H](/C(C)=C/[C@@H]3CC[C@@H](O)[C@H](OC)C3)[C@H](C)[C@@H](O)CC1=O)[C@H](C)C[C@@H]2OC` [tacrolimus], for which the “native solubility of tacrolimus in this dissolution vehicle” value in data set [2] was “approximately 43 % dissolved”.

Source of the values: patent US20150283092A1, “DRUG DELIVERY COMPOSITION” (Alkermes Pharma Ireland Limited, priority 2009, published 2015).
